Measurements: patent US20230085307A1, “PYRIDAZINONE COMPOUND AND HERBICIDE” (NISSAN CHEMICAL CORPORATION, priority 2019, published 2023)

Experiments:
[1] = test system: green foxtail; assay: Test Example 5: herbicidal effect by foliage application, plastic box (Table 20, symbol G); assay type: in vivo, green foxtail (Setaria viridis); conditions: foliage application, 320 g/ha
In short: (§1)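 Plants were sown into sterilized diluvial soil under about 1.5 cm cover and kept in a greenhouse at 25° C. to 30° C. Fourteen days on, foliage received an even spray of the diluted emulsion. Herbicidal or crop effect was judged three weeks afterwards.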

[2] = test system: Italian ryegrass; assay: Test Example 5: herbicidal effect by foliage application, plastic box (Table 20, symbol K); assay type: in vivo, Italian ryegrass (Lolium multiflorum); conditions: foliage application, 320 g/ha
In short: as §1

[3] = test system: lambsquarters; assay: Test Example 5: herbicidal effect by foliage application, plastic box (Table 20, symbol O); assay type: in vivo, lambsquarters (Chenopodium album); conditions: foliage application, 320 g/ha
In short: as §1

[4] = test system: velvetleaf; assay: Test Example 5: herbicidal effect by foliage application, plastic box (Table 20, symbol M); assay type: in vivo, velvetleaf (Abutilon theophrasti); conditions: foliage application, 320 g/ha
In short: as §1

[5] = test system: chickweed; assay: Test Example 5: herbicidal effect by foliage application, plastic box (Table 20, symbol P); assay type: in vivo, common chickweed (Stellaria media); conditions: foliage application, 320 g/ha
In short: as §1

[6] = test system: false cleavers; assay: Test Example 5: herbicidal effect by foliage application, plastic box (Table 20, symbol Q); assay type: in vivo, false cleavers (Galium spurium); conditions: foliage application, 320 g/ha, evaluated three weeks after application
In short: as §1

[7] = test system: Japanese bulrush; assay: Test Example 2: herbicidal activity, application during weed generation under submerged conditions (Table 17, symbol B); assay type: in vivo, Japanese bulrush (Schoenoplectus juncoides); conditions: AAH 320 g/ha; application during weed generation, submerged conditions
In short: (§2)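 Steps: fill Wagner pots with alluvial soil; add water to give 4 cm depth; sow the species mixed; grow under glass at 25–30° C.; at 1–2 leaves apply water-diluted emulsion formulation to the water surface at a fixed herbicide amount; score after 3 weeks.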

[8] = test system: barnyard grass; assay: Test Example 5: herbicidal effect by foliage application, plastic box (Table 20, symbol H); assay type: in vivo, barnyard grass (Echinochloa crus-galli); conditions: foliage application, 320 g/ha
In short: as §1

[9] = test system: oval-leafed pondweed; assay: Test Example 2: herbicidal activity, application during weed generation under submerged conditions (Table 17, symbol C); assay type: in vivo, oval-leafed pondweed (Monochoria vaginalis); conditions: AAH 320 g/ha; application during weed generation, submerged conditions
In short: as §2

[10] = test system: blackgrass; assay: Test Example 5: herbicidal effect by foliage application, plastic box (Table 20, symbol J); assay type: in vivo, blackgrass (Alopecurus myosuroides); conditions: foliage application, 320 g/ha
In short: as §1

[11] = test system: rice flat sedge; assay: Test Example 3: herbicidal effect by foliage application, Wagner pot (Table 18, symbol E); assay type: in vivo, rice flat sedge (Cyperus iria)
In short: (§3)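 Plants were sown in alluvial soil held under 0.1–0.5 cm standing water and grown 14 days in a greenhouse at 25–30 °C. An emulsifiable formulation, water-diluted to the set dose, was then sprayed onto the foliage, and effects were scored three weeks later using previously defined criteria.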

[12] = test system: late watergrass; assay: Test Example 1: herbicidal activity, application before weed generation under submerged conditions (Table 16, symbol A); assay type: in vivo, late watergrass (Echinochloa oryzicola); conditions: 320 g/ha applied herbicide
In short: (§4)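 Alluvial soil was flooded to 4 cm depth, weed seeds were sown mixed and 2.5-leaf rice seedlings were transplanted. On sowing day, the compound's emulsion, diluted in water to a set dose, was applied to the water surface. Plants grew at 25–30 °C and were scored 0–5 after three weeks.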

[13] = test system: Japanese bulrush; assay: Test Example 1: herbicidal activity, application before weed generation under submerged conditions (Table 16, symbol B); assay type: in vivo, Japanese bulrush (Schoenoplectus juncoides); conditions: 320 g/ha applied herbicide
In short: as §4

[14] = test system: persian speedwell; assay: Test Example 5: herbicidal effect by foliage application, plastic box (Table 20, symbol R); assay type: in vivo, Persian speedwell (Veronica persica); conditions: foliage application, 320 g/ha
In short: as §1

[15] = test system: barnyard grass; assay: Test Example 3: herbicidal effect by foliage application, Wagner pot (Table 18, symbol H); assay type: in vivo, barnyard grass (Echinochloa crus-galli)
In short: as §3

[16] = test system: late watergrass; assay: Test Example 2: herbicidal activity, application during weed generation under submerged conditions (Table 17, symbol A); assay type: in vivo, late watergrass (Echinochloa oryzicola); conditions: AAH 320 g/ha; application during weed generation, submerged conditions
In short: as §2

[17] = test system: Chinese sprangletop; assay: Test Example 3: herbicidal effect by foliage application, Wagner pot (Table 18, symbol D); assay type: in vivo, chinese sprangletop (Leptochloa chinensis)
In short: as §3

[18] = test system: redroot pigweed; assay: Test Example 5: herbicidal effect by foliage application, plastic box (Table 20, symbol N); assay type: in vivo, redroot pigweed (Amaranthus retroflexus); conditions: foliage application, 320 g/ha
In short: as §1

[19] = test system: oval-leafed pondweed; assay: Test Example 1: herbicidal activity, application before weed generation under submerged conditions (Table 16, symbol C); assay type: in vivo, oval-leafed pondweed (Monochoria vaginalis); conditions: 320 g/ha applied herbicide
In short: as §4

[20] = test system: wild oat; assay: Test Example 5: herbicidal effect by foliage application, plastic box (Table 20, symbol I); assay type: in vivo, wild oat (Avena fatua); conditions: foliage application, 320 g/ha
In short: as §1

[21] = test system: windgrass; assay: Test Example 5: herbicidal effect by foliage application, plastic box (Table 20, symbol L); assay type: in vivo, windgrass (Apera spica-venti); conditions: foliage application, 320 g/ha
In short: as §1

[22] = test system: southern crabgrass; assay: Test Example 5: herbicidal effect by foliage application, plastic box (Table 20, symbol F); assay type: in vivo, southern crabgrass (Digitaria ciliaris); conditions: foliage application, 320 g/ha
In short: as §1

[23] = test system: barnyard grass; assay: Test Example 4: herbicidal effect by soil treatment (Table 19, symbol H); assay type: in vivo, barnyard grass (Echinochloa crus-galli); conditions: amount of applied herbicide 320 g/ha
In short: (§5)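 Pre-emergence style soil spray: seeds under ~1.5 cm sterilized diluvial soil received a uniform coat of emulsion diluted to the predetermined herbicide amount. Greenhouse 25–30° C; readout at week three on previously defined criteria.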

[24] = test system: southern crabgrass; assay: Test Example 4: herbicidal effect by soil treatment (Table 19, symbol F); assay type: in vivo, southern crabgrass (Digitaria ciliaris); conditions: amount of applied herbicide 320 g/ha
In short: as §5

[25] = test system: green foxtail; assay: Test Example 4: herbicidal effect by soil treatment (Table 19, symbol G); assay type: in vivo, green foxtail (Setaria viridis); conditions: amount of applied herbicide 320 g/ha
In short: as §5

[26] = test system: blackgrass; assay: Test Example 4: herbicidal effect by soil treatment (Table 19, symbol J); assay type: in vivo, blackgrass (Alopecurus myosuroides); conditions: amount of applied herbicide 320 g/ha
In short: as §5

[27] = test system: Italian ryegrass; assay: Test Example 4: herbicidal effect by soil treatment (Table 19, symbol K); assay type: in vivo, Italian ryegrass (Lolium multiflorum); conditions: amount of applied herbicide 320 g/ha
In short: as §5

[28] = test system: false cleavers; assay: Test Example 4: herbicidal effect by soil treatment (Table 19, symbol Q); assay type: in vivo, false cleavers (Galium spurium); conditions: amount of applied herbicide 320 g/ha
Description: [Test Example 4] Herbicidal Effect Test by Soil Treatment
Sterilized diluvial soil was placed in a plastic box having a length of 21 cm, a width of 13 cm, and a depth of 7 cm. The seeds of each of southern crabgrass, green foxtail, barnyard grass, wild oat, blackgrass, Italian ryegrass, windgrass, velvetleaf, redroot pigweed, lambsquarters, chickweed, false cleavers, persian speedwell, corn, soybean, rice, wheat, beet, and rapeseed were sowed in a spot-like manner and covered with the soil having a thickness of about 1.5 cm. Subsequently, the emulsion agent of the compound of the present invention prepared according to Formulation Example 2 was diluted with water so as to achieve a predetermined herbicide amount, and the diluted emulsion agent was uniformly applied to the surface of the soil with a small-sized spray. The plastic box was placed in a greenhouse at 25° C. to 30° C. for growth of the plants. Three weeks after the herbicide application, the effect of the herbicide on each plant was evaluated according to the criteria of Test Example 1.

[29] = test system: redroot pigweed; assay: Test Example 4: herbicidal effect by soil treatment (Table 19, symbol N); assay type: in vivo, redroot pigweed (Amaranthus retroflexus); conditions: amount of applied herbicide 320 g/ha
In short: as §5

[30] = test system: wild oat; assay: Test Example 4: herbicidal effect by soil treatment (Table 19, symbol I); assay type: in vivo, wild oat (Avena fatua); conditions: amount of applied herbicide 320 g/ha
In short: as §5

[31] = test system: lambsquarters; assay: Test Example 4: herbicidal effect by soil treatment (Table 19, symbol O); assay type: in vivo, lambsquarters (Chenopodium album); conditions: amount of applied herbicide 320 g/ha
In short: as §5

[32] = test system: velvetleaf; assay: Test Example 4: herbicidal effect by soil treatment (Table 19, symbol M); assay type: in vivo, velvetleaf (Abutilon theophrasti); conditions: amount of applied herbicide 320 g/ha
In short: as §5

[33] = evaluated three weeks after application
[34] = amount of applied herbicide 320 g/ha

COCCOCOc1c(C)nn(C)c(=O)c1-c1c(-c2ccc(OCc3ccccc3)cc2)sc2ccc(F)cc12 [2-064]
herbicidal effect on G: green foxtail [1, 33]: 3 (Herbicidal rate of 40% or more and less than 70%)
herbicidal effect on K: Italian ryegrass [2, 33]: 0 (Herbicidal rate of 5% or less (almost no effect))
herbicidal effect on O: lambsquarters [3, 33]: 4 (Herbicidal rate of 70% or more and less than 90%)
herbicidal effect on M: velvetleaf [4, 33]: 3 (Herbicidal rate of 40% or more and less than 70%)
herbicidal effect on P: chickweed [5, 33]: 4 (Herbicidal rate of 70% or more and less than 90%)
herbicidal effect on Q: false cleavers [6]: 4 (Herbicidal rate of 70% or more and less than 90%)
herbicidal effect rating, B: Japanese bulrush [7]: 3 (Herbicidal rate of 40% or more and less than 70%)
herbicidal effect on H: barnyard grass [8, 33]: 3 (Herbicidal rate of 40% or more and less than 70%)
herbicidal effect rating, C: oval-leafed pondweed [9]: 0 (Herbicidal rate of 5% or less (almost no effect))
herbicidal effect on J: blackgrass [10, 33]: 0 (Herbicidal rate of 5% or less (almost no effect))
herbicidal effect on E (rice flat sedge), rating 0-5 ([11]; 320 g/ha): 0 (Herbicidal rate of 5% or less (almost no effect))
Herbicidal effect on A: late watergrass (grade 0-5) [12]: 4 (Herbicidal rate of 70% or more and less than 90%)
Herbicidal effect on B: Japanese bulrush (grade 0-5) [13]: 4 (Herbicidal rate of 70% or more and less than 90%)
herbicidal effect on R: persian speedwell [14, 33]: 4 (Herbicidal rate of 70% or more and less than 90%)
herbicidal effect on H (barnyard grass), rating 0-5 ([15]; 320 g/ha): 3 (Herbicidal rate of 40% or more and less than 70%)
herbicidal effect rating, A: late watergrass [16]: 3 (Herbicidal rate of 40% or more and less than 70%)
herbicidal effect on D (Chinese sprangletop), rating 0-5 ([17]; 320 g/ha): 3 (Herbicidal rate of 40% or more and less than 70%)
herbicidal effect on N: redroot pigweed [18, 33]: 5 (Herbicidal rate of 90% or more (almost completely withered))
Herbicidal effect on C: oval-leafed pondweed (grade 0-5) [19]: 3 (Herbicidal rate of 40% or more and less than 70%)
herbicidal effect on I: wild oat [20, 33]: 0 (Herbicidal rate of 5% or less (almost no effect))
herbicidal effect on L: windgrass [21, 33]: 0 (Herbicidal rate of 5% or less (almost no effect))
herbicidal effect on F: southern crabgrass [22, 33]: 3 (Herbicidal rate of 40% or more and less than 70%)

Cc1nn(C)c(=O)c(-c2c(-c3ccc(F)cc3)sc3cc(Cl)ccc23)c1O [3-031]
G: green foxtail, herbicidal effect grade ([1]; three weeks after application): 5 (Herbicidal rate of 90% or more (almost completely withered))
H: barnyard grass, herbicidal effect grade [23]: 3 (Herbicidal rate of 40% or more and less than 70%)
F: southern crabgrass, herbicidal effect grade [24]: 3 (Herbicidal rate of 40% or more and less than 70%)
K: Italian ryegrass, herbicidal effect grade ([2]; three weeks after application): 5 (Herbicidal rate of 90% or more (almost completely withered))
O: lambsquarters, herbicidal effect grade ([3]; three weeks after application): 4 (Herbicidal rate of 70% or more and less than 90%)
G: green foxtail, herbicidal effect grade [25]: 4 (Herbicidal rate of 70% or more and less than 90%)
M: velvetleaf, herbicidal effect grade ([4]; three weeks after application): 5 (Herbicidal rate of 90% or more (almost completely withered))
P: chickweed, herbicidal effect grade ([5]; three weeks after application): 5 (Herbicidal rate of 90% or more (almost completely withered))
J: blackgrass, herbicidal effect grade [26]: 0 (Herbicidal rate of 5% or less (almost no effect))
H: barnyard grass, herbicidal effect grade ([8]; three weeks after application): 4 (Herbicidal rate of 70% or more and less than 90%)
K: Italian ryegrass, herbicidal effect grade [27]: 3 (Herbicidal rate of 40% or more and less than 70%)
J: blackgrass, herbicidal effect grade ([10]; three weeks after application): 4 (Herbicidal rate of 70% or more and less than 90%)
herbicidal effect on E: rice flat sedge [11, 34]: 3 (Herbicidal rate of 40% or more and less than 70%)
Q: false cleavers, herbicidal effect grade [28]: 4 (Herbicidal rate of 70% or more and less than 90%)
N: redroot pigweed, herbicidal effect grade [29]: 3 (Herbicidal rate of 40% or more and less than 70%)
R: persian speedwell, herbicidal effect grade ([14]; three weeks after application): 5 (Herbicidal rate of 90% or more (almost completely withered))
herbicidal effect on H: barnyard grass [15, 34]: 5 (Herbicidal rate of 90% or more (almost completely withered))
herbicidal effect on D: Chinese sprangletop [17, 34]: 2 (Herbicidal rate of 20% or more and less than 40%)
I: wild oat, herbicidal effect grade [30]: 1 (Herbicidal rate of 5% or more and less than 20%)
N: redroot pigweed, herbicidal effect grade ([18]; three weeks after application): 5 (Herbicidal rate of 90% or more (almost completely withered))
O: lambsquarters, herbicidal effect grade [31]: 4 (Herbicidal rate of 70% or more and less than 90%)
I: wild oat, herbicidal effect grade ([20]; three weeks after application): 5 (Herbicidal rate of 90% or more (almost completely withered))
L: windgrass, herbicidal effect grade ([21]; three weeks after application): 5 (Herbicidal rate of 90% or more (almost completely withered))
F: southern crabgrass, herbicidal effect grade ([22]; three weeks after application): 4 (Herbicidal rate of 70% or more and less than 90%)
M: velvetleaf, herbicidal effect grade [32]: 2 (Herbicidal rate of 20% or more and less than 40%)
